Here are results for two molecules from ChEMBL document CHEMBL5036306 (J Med Chem, 2021).

Activity calls are given as the source filed them. The rule behind the calls is not given here.

In one data set the target is Histone deacetylase 1 (Homo sapiens, UniProt Q13547). Nature of the data set: Inhibition of recombinant HDAC1 (unknown origin) using Boc-Lys(Ac)-AMC as substrate pre-incubated for 1 hr followed by substrate addition and measured after 2 hrs by fluorescence based assay.
For data set [1], the species on record is Homo sapiens. Nature of the data set: Selectivity ratio of IC50 for recombinant HDAC4 (unknown origin) to IC50 for recombinant HDAC6 (unknown origin).
The target of data set [2] is T1, Protein deacetylase HDAC6 (Homo sapiens, UniProt Q9UBN7).
T1 sequence (Q9UBN7 whole entry): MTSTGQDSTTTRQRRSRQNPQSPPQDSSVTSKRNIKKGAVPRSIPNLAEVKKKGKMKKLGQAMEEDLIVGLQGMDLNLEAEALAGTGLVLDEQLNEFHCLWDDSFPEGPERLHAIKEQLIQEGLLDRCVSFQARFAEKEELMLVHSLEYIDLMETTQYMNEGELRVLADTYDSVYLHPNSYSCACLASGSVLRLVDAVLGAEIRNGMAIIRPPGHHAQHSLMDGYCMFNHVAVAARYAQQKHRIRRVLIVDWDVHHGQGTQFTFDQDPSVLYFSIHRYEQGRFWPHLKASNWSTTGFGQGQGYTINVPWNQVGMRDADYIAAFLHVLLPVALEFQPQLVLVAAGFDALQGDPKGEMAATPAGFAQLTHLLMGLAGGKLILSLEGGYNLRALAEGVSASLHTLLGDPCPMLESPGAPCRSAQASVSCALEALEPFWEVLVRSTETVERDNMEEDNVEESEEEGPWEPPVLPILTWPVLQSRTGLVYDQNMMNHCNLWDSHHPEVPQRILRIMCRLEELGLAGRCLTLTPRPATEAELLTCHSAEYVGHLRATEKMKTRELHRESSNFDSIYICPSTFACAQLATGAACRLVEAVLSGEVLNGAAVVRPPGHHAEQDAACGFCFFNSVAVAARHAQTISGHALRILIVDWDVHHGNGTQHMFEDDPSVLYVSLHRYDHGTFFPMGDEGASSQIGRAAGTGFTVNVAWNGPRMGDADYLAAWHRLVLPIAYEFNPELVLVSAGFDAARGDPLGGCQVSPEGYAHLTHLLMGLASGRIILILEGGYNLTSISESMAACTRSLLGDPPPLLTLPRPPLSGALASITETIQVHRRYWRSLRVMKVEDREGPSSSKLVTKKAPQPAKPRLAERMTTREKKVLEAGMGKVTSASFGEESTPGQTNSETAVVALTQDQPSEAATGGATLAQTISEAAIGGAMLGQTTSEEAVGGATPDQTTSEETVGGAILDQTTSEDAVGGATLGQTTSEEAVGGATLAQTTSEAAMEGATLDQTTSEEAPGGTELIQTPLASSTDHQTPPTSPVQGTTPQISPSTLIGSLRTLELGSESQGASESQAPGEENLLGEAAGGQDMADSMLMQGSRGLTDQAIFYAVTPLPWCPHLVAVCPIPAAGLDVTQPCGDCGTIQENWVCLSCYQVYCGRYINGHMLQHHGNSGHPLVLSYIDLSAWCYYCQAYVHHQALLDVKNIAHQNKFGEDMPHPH
Briefly: Inhibition of recombinant HDAC6 (unknown origin) using Boc-Lys(acetyl)-AMC as substrate preincubated for 1 hr followed by substrate addition and measured after 2 hrs by fluorescence based assay.

The species entered for data set [3] is Homo sapiens. Briefly: Selectivity ratio of IC50 for recombinant HDAC7 (unknown origin) to IC50 for recombinant HDAC6 (unknown origin).
The nature of data set [4]: Antioxidant activity assessed as DPPH radical scavenging activity incubated for 30 mins under dark condition by microplate reader based assay. It is filed as functional. A general note: Loss of DPPH colour is used to gauge radical scavenging.
A further data set addresses Histone deacetylase 2 (Homo sapiens, UniProt Q92769). Briefly: Inhibition of recombinant HDAC2 (unknown origin) using Boc-Lys(Ac)-AMC as substrate pre-incubated for 1 hr followed by substrate addition and measured after 2 hrs by fluorescence based assay.
A short description of data set [5]: Neurotoxicity in mouse HT-22 cells assessed as cell survival at 10 uM incubated for 48 hrs by MTT assay. The class given is cell-based. The following applies: ht-22, 48 h, 10 µM.
A short description of data set [6]: Metal chelating activity compound-Zn2+ complex formation at 10 to 200 uM preincubated for 2 mins followed by di-thizone addition by microplate reader based assay. To be noted: dose 10-200 µM.
The target of a further data set is Histone deacetylase 9 (Homo sapiens, UniProt Q9UKV0). Briefly: Inhibition of recombinant HDAC9 (unknown origin) using Boc-Lys(trifluoroacetyl)-AMC as substrate pre-incubated for 1 hr followed by substrate addition and measured after 2 hrs by fluorescence based assay.
The species entered for data set [7] is Homo sapiens. Briefly: Selectivity ratio of IC50 for recombinant HDAC3 (unknown origin) to IC50 for recombinant HDAC6 (unknown origin).
Data set [8] is filed under the species Homo sapiens. Nature of the data set: Selectivity ratio of IC50 for recombinant HDAC9 (unknown origin) to IC50 for recombinant HDAC6 (unknown origin).
The next data set deals with N9. Nature of the data set: Immunomodulatory activity in LPS-induced mouse N9 microglial cells assessed as increase in TGF-beta2 expression at 0.1 to 5 uM incubated for 24 hrs by Western blot analysis. It is filed as functional. The following applies: dose 0.1-5 µM.
Data set [9] in a line: Metal chelating activity assessed as Fe2+ -ferrozoine complex formation at 10 to 200 uM preincubated for 2 mins followed by ferrozine addition and further incubated for 10 mins by microplate reader based assay. To be noted: dose 10-200 µM, time 12.0 min.
Data set [10] in a line: Toxicity in mouse model of Alzheimer's disease assessed as drug tolerability at 0.3 to 3 mg/kg, ip measured after 7 days. The class given is organism-based. The following applies: in vivo, 168 h, dose 0.3-3 mg/kg, time 7 day.
For data set [11], the system named is Mus musculus. Briefly: Neuroprotection against mouse model of Alzheimer's disease at 1 mg/kg. The class given is functional, organism-based.
Data set [12] concerns Mus musculus. Briefly: Cognitive enhancing effect in mouse model of Alzheimer's disease at 1 mg/kg. It is filed as functional, organism-based.

Chain of Histone deacetylase 2 (Q92769 whole entry): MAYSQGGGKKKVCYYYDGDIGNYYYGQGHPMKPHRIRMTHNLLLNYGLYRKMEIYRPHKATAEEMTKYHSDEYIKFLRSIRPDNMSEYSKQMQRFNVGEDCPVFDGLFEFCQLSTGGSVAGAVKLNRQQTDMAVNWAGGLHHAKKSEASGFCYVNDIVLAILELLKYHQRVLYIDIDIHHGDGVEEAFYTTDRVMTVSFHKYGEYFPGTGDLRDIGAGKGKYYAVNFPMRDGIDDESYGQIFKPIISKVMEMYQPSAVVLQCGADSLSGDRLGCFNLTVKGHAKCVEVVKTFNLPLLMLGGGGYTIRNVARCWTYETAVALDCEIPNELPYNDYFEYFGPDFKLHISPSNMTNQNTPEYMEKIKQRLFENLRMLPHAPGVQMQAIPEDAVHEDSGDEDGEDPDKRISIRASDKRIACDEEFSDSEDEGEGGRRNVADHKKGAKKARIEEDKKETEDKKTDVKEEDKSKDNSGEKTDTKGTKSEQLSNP
Chain of Histone deacetylase 1 (Q13547 whole entry): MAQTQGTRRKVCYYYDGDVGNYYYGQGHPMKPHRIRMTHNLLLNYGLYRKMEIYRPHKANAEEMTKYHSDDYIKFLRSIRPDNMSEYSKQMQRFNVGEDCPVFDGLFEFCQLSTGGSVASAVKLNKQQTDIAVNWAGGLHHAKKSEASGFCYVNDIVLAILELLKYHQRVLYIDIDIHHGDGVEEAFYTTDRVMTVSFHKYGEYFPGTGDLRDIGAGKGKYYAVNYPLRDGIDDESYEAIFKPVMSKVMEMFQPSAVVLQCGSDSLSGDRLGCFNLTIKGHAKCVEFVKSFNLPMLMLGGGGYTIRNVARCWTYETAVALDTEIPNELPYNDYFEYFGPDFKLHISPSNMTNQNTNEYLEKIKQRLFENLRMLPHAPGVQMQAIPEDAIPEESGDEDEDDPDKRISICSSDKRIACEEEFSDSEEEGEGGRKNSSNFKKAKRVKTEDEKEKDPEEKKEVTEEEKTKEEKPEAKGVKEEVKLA
Chain of Histone deacetylase 9 (Q9UKV0 whole entry): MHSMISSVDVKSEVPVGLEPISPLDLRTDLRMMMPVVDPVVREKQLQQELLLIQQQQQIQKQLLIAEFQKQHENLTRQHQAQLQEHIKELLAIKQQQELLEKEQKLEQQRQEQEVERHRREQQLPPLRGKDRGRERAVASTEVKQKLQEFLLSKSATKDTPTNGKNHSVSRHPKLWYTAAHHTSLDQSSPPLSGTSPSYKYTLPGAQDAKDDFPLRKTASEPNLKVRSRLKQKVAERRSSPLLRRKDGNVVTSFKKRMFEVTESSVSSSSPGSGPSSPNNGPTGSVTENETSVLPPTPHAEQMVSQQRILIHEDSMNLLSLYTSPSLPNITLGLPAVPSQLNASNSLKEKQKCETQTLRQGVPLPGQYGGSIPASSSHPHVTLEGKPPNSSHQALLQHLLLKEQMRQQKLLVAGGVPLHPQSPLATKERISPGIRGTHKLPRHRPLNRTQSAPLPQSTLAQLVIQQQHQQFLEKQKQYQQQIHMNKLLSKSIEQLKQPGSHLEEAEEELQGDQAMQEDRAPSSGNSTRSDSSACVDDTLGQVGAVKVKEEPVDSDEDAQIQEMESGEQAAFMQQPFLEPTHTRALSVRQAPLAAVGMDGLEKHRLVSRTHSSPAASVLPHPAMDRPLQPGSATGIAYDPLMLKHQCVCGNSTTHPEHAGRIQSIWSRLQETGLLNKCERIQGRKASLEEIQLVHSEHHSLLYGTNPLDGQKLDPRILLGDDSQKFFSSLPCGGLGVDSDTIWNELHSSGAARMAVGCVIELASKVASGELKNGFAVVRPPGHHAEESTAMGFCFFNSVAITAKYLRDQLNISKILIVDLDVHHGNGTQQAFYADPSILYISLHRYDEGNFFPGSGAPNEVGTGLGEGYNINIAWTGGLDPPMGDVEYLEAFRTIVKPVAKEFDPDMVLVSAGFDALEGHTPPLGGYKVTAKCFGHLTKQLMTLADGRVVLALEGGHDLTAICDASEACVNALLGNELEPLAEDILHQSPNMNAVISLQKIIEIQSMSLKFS

A word on the IC50: it is the concentration that gives 50% inhibition. Usually EC50 stands for the concentration needed to bring the measured effect to its halfway point. For `COc1ccc2c(c1)c(CCNC(C)=O)cn2Cc1ccc(C(=O)NO)cc1`, the IC50 amounted to 262 nM at Histone deacetylase 1, 11.2 nM in data set [2], 336 nM on Histone deacetylase 2 and 362 nM at Histone deacetylase 9. The Ratio IC50 in the data set listed under Homo sapiens [1] came out at 306; in the data set listed under Homo sapiens [3], 148; in the data set listed under Homo sapiens [7], 57; in the data set filed under Homo sapiens [8], 32. Moreover, in [4], the concentration giving a half-maximal response (EC50) was found to be 56300 nM. Moreover, the Activity entry in data set [5] was “Toxic”. For the same molecule, the result in [6] and in [9] was Active. In addition, the outcome in the data set on N9 was inactive.
As to `COc1ccc2[nH]cc(CCN(Cc3ccc(C(=O)NO)cc3)C(=O)/C=C/c3ccc(O)c(OC)c3)c2c1`, the half-inhibitory concentration (IC50) on Histone deacetylase 1 is 771 nM; in data set [2], 30.7 nM; at Histone deacetylase 2 it was 2850 nM; on Histone deacetylase 9 it was > 10000 nM. In addition, the Ratio IC50 in the data set filed under Homo sapiens [1] was > 326; in the data set filed under Homo sapiens [3] it was > 326; in the data set filed under Homo sapiens [7], 53; in the data set filed under Homo sapiens [8], > 326. The Activity entry in data set [10] and in data set [5] was “Non-Toxic” each time. Further, in data set [4], the EC50 came out at 10800 nM. Moreover, the outcome (with Mus musculus [11]; in the data set on Mus musculus [12]; in [6]; with N9; in data set [9]) was Active.
